Experimental data as given in patent EP0863156A1, “Peptides useful as somatostatin antagonists” (American Cyanamid Company, priority 1997, dated 1998).
Square brackets hold non-standard residues; d marks the D form. Peptide text beside a SMILES is read from it.

Experiments:
SRIF receptors = biological target: T1, SRIF receptors (Rattus norvegicus, UniProt P30680); experiment: Yeast bioassay for SRIF antagonist activity (zone of growth inhibition of LY364 cells growing in response to SRIF); type: cell-based; conditions: 10 µL of 5 mg/mL on filter disk, S-14 10 nM
T1 construct: expressed in transfected cells; host or cells: Saccharomyces cerevisiae strain LY364
Method: Agar plates containing LY364 cells that are growing in the presence of added SRIF are the basis for a sensitive SRIF antagonist assay, whereby zones of growth inhibition result from the addition of SRIF antagonists to the surface of the agar plate (see L.A. Price, et al., Molecular and Cellular Biology, 15, 6188-6195, 1995, incorporated herein by reference).
In this assay, LY364 cells are grown overnight in 2 mL of synthetic complete(SC) medium (3.4 g/L YNB without amino acids and ammonium sulfate, 10 g/L ammonium sulfate and 1.4 g/L CSM-ura-trp) with glucose (2%) and without uracil and tryptophan. These cells are washed and cultured for 4 to 8 hours in 5 mL of SC medium with lactate (3%) and without uracil and tryptophan, and finally grown overnight in 5 mL of SC medium with galactose (2%) and without uracil and tryptophan. Molten (50° C) SC agar medium with galactose (2%) and without uracil, tryptophan and histidine is adjusted to pH 6.8 with KOH, mixed with 2 x 10^4 cells/mL and SRIF (S-14, 10 nM) and poured into square (20 x 20 cm) petri dishes. Sterile filter disks are placed on the surface of the agar, and saturated with 10 µL of water or DMSO containing 5 mg/mL test peptides. After three days, the plates display a uniform cloudy background of […] cells growing in response to the added SRIF. […] This zone is quantified by measuring its diameter (mm), which varies according to the potency of the SRIF antagonist. Those peptides or mixtures of peptides displaying the largest zones of inhibition are further characterized.
Values are compared among samples in the same experiment, as the degree of yeast growth varies somewhat from assay to assay. For the first five sample types, in which progressively less complex mixtures of peptides are found, this assay is the primary determining factor in choosing which samples form the basis of subsequent syntheses.
Plates are read after 3 days. Samples shown in Table I in bold type are chosen for further synthesis. In Table I, all amino acids are D-amino acids and dashes represent undefined amino acid residues.

Male Sprague-Dawley rats = experiment: Serum growth hormone levels in anaesthetized rats after intravenous treatment (radioimmunoassay); type: in vivo; conditions: for SGH: GRF 1 µg + Peptide 1 50 µg at 30 min
Method: Evaluation in anaesthetized rats. Male Sprague-Dawley rats are anaesthetized with Sagatal and fitted so as to allow efficient intravenous treatment with control and test compounds as well as frequent blood sampling. Blood samples are tested for growth hormone (GH) levels by radioimmunoassay. Thirty minutes after the initiation of blood sampling, rats are given 5 µg, 25 µg or 50 µg of peptide 1.
Peptide 1 is tested in combination with growth hormone releasing factor (GRF), to investigate whether said peptide may be mimicking the action of GRF. Anaesthetized rats are given GRF (1 µg) alone and in combination with peptide 1 (50 µg). […]

SSTR2 = SSTR2 (Rattus norvegicus, UniProt P30680); experiment: cAMP accumulation in forskolin-stimulated GH4C1/SSTR2 cells (SPA radioimmunoassay); type: cell-based; design: expressed in transfected cells; host or cells: GH4C1 rat pituitary tumor cells (GH4C1/SSTR2); conditions: in the absence of SRIF (inverse agonist activity)
Description: A primary effect of SRIF upon mammalian cells is the reduction of cyclic adenosine 3',5'-monophosphate(cAMP) levels, via inhibition of adenylyl cyclase. This is the basis of a common assay for SRIF agonists and antagonists, whereby SRIF agonists reduce artificially stimulated cAMP levels, and SRIF antagonists reverse the effect of SRIF. The rat pituitary tumor cell line GH4C1 predominantly expresses SSTR2, and responds to SRIF and to forskolin, a stimulator of adenylate cyclase (see C.M. Eppler, et al., J. Biol. Chem., 267, 15603-15612, 1992, incorporated herein by reference). […] This increases the response to SRIF and provides a greater dynamic range for the measurement of SRIF antagonist activity.
Stimulation of cells. GH4C1/SSTR2 cells, grown in DMEM with 10% bovine serum, are released from a tissue culture dish by incubation for several minutes at 37° C with PBS containing 0.5 mM EDTA. Cells are washed in induction buffer (PBS containing 100 µM IBMX (an inhibitor of cAMP breakdown) and 2 mM CaCl2) at room temperature, and resuspended at 2 x 10^6/mL in induction buffer. Into each well of a 96-well tray are added 50 µL of a 2 X concentration of stimulants in induction buffer. […] Baseline cAMP levels are determined in samples with no added forskolin or SRIF, and each treatment is performed in triplicate.
cAMP assay. […] The 96-well tray is sealed, shaken at room temperature overnight and measured for bound radioligand in a MicroBeta liquid scintillation counter (Wallac, Gaithersburg. MD). The standard curve is determined for each experiment by performing a nonlinear regression (exponential decay) analysis of cpm measured for the cAMP standards vs. their log concentrations, and test sample values are determined by using Prism software (Graphpad Software Inc., San Diego, CA) and are shown in Table II and Figure 1.
The intrinsic activity of an SRIF antagonist is the percent reversal of the SSTR2 activation by SRIF or MK678, wherein 0% is defined by cAMP levels in samples treated with forskolin plus SRIF or MK678 and 100% is the cAMP level measured after treatment with forskolin alone. […]

T1 sequence (P30680 whole entry): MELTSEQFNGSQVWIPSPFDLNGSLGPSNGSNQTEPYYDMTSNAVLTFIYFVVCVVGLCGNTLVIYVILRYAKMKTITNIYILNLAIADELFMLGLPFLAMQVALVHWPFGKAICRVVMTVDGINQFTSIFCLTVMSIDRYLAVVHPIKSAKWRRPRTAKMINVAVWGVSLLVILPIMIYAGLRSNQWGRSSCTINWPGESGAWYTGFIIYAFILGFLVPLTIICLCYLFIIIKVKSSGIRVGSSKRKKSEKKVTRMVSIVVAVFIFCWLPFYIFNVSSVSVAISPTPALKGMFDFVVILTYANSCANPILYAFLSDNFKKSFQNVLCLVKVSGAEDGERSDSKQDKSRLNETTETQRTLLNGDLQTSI
Chain of SSTR2 (P30680 whole entry): as above

## CC[C@@H](C)[C@@H](NC(=O)[C@@H](Cc1ccccc1)NC(=O)[C@@H](Cc1c[nH]cn1)NC(C)=O)C(=O)N[C@H](CCCNC(=N)N)C(=O)N[C@H](Cc1c[nH]c2ccccc12)C(=O)N[C@H](Cc1ccccc1)C(N)=O [Peptide 1, Ac-D-His-D-Phe-D-Ile-D-Arg-D-Trp-D-Phe-NH2] (Ac-[dH][dF][dI][dR][dW][dF]-NH2)
SRIF receptors; Table III, diameter of zone of growth inhibition
  Yeast Assay (mm): 20 mm
SRIF receptors; sample type 4th iteration, read after 3 days, compare only within same experiment
  Inhibition Zone (mm): 18 mm
Male Sprague-Dawley rats; time 35 min
  SGH: 195.8 ng/mL
Male Sprague-Dawley rats; time 40 min
  SGH: 176.2 ng/mL
Male Sprague-Dawley rats; time 45 min
  SGH: 40.5 ng/mL
Male Sprague-Dawley rats; GRF (1 µg) in combination with peptide 1 (50 µg), compared with GRF alone
  GH levels: rise faster and higher than with GRF alone
SSTR2
  forskolin-stimulated cAMP levels: increase in forskolin-stimulated cAMP levels
